Laboratory results: patent US6809085B1, “Adherent N,O-Carboxymethylchitosan drug delivery devices for moist tissue and methods of their use” (Chitogenics, Inc., priority 1999, dated 2004)
Structures can show the parent of a compound that is named as a salt. Where two headings read alike, the source gives them in different places.

Format: in vitro ADME, rabbit
Procedure: Previously harvested pieces of rabbit large bowel (surface area 1.767 cm^2) were mounted in an Improved Franz Diffusion Cell containing 0.9% saline (13ml) as the receptor medium. The vaginal cream of Example 3 (1.0 g) was applied directly to the rabbit tissue; the experiments were performed in triplicate.
Aliquots of 1.0 ml (which were replaced with fresh saline solution) were withdrawn from the receptor chamber at 1, 3, 6, 20, 24, 48 hours. LN in samples was quantified using high performance liquid chromatography (Hewlett Packard, model 1090,series II, fitted with Hypersil C18, 5 μm, 25 cm×4.6 mm column, a UV detector set at 241 nm and an acetonitrile(80%)-water(20%) mobile phase).
Accurately weighed portions of the LN-vaginal cream as well as the cream recovered from the diffusion cells were extracted with 20 ml methanol for 16 hr on a wrist-action shaker and analyzed. […] The replicate results along with an average are plotted.
The permeation studies were conducted as described in Example 12 except that the HPLC analysis was modified; a Spectra Physics, Model SP8800, fitted with Alltima phenyl, 5 micron, 15 cm×4.6 mm column, and a UV detector set at 223 nm was used with an acetonitrile (40%)-0.1% phosphoric acid mobile phase. […]

**Q.** Which “concentration of LN in the cream recovered following the permeation study” value does the source give for `C#C[C@]1(O)CC[C@H]2[C@@H]3CCC4=CC(=O)CC[C@@H]4[C@H]3CC[C@@]21CC` [levonorgestrel] here?
**A.** 3.101 ± 0.315 mg/g

**Q.** And the “amount of levonorgestrel released through normal tissue” value (rabbit, 48 h, 3 mg/g)?
**A.** less than 0.5%

**Q.** What about the “permeation rate of hormone that diffused through the tissue from the cream” value (rabbit, 48 h, 3 mg/g) of the same compound?
**A.** 0.163±0.010 μg/cm^2/hr

**Q.** Which “average permeation rate through the mucosal tissue” value does the source give for `CC(=O)O.CC(=O)O.NC(=N\CCCCCC/N=C(N)/N=C(\N)Nc1ccc(Cl)cc1)/N=C(\N)Nc1ccc(Cl)cc1` [chlorhexidine diacetate] here?
**A.** 160.8 μg/cm^2/hr

**Q.** Which “average permeation rate through the mucosal tissue” value (rabbit, 24 h) does the source give for `CC(C)(C)NC[C@H](O)COc1nsnc1N1CCOCC1` [timolol maleate] here?
**A.** 103.8 μg/cm^2/hr

**Q.** For `CN(C)CCC(c1ccc(Cl)cc1)c1ccccn1` (stereo not shown) [chlorpheniramine maleate], which “average permeation rate through the mucosal tissue” value (rabbit, 48 h, 5 mg per pellet) is on record?
**A.** 97.3 μg/cm^2/hr

**Q.** What about the “average permeation rate through the mucosal tissue” value (rabbit, 48 h, 10 mg per pellet) of the same compound?
**A.** 182 μg/cm^2/hr
